According to patent US7183238B2, “[1,2]-oxazine-3,5-diones” (Bayer CropScience AG, priority 2001, dated 2007):

Experiments:
Format in all cases: in vivo
[1] = test system: larvae of the mustard beetle (Phaedon cochleariae); assay: Phaedon larvae test; details: 500 ppm active compound, cabbage leaves (Brassica oleracea) dipped
Method: (§1) Phaedon Larvae Test • Solvent: 7 parts by weight of dimethylformamide • Emulsifier: 2 parts by weight of alkylaryl polyglycol ether To produce a suitable preparation of active compound, 1 part by weight of active compound is mixed with the stated amounts of solvents and emulsifier, and the concentrate is diluted with emulsifier-containing water to the desired concentration. Cabbage leaves (Brassica oleracea) are treated by being dipped into the preparation of active compound of the desired concentration and are populated with larvae of the mustard beetle (Phaedon cochleariae) while the leaves are still moist. After the desired period of time, the kill in % is determined. 100% means that all beetle larvae have been killed; 0% means that none of the beetle larvae has been killed.

[2] = test system: caterpillars of the armyworm (Spodoptera frugiperda); assay: Spodoptera frugiperda test; details: 500 ppm active compound, cabbage leaves (Brassica oleracea) dipped
Method: as §1, with “Spodoptera frugiperda” for “Phaedon Larvae”, “solvent” for “solvents”, “caterpillars” for “larvae”, “armyworm (Spodoptera frugiperda)” for “mustard beetle (Phaedon cochleariae)”, “caterpillars” for “beetle larvae”

[3] = test system: greenhouse red spider mite (Tetranychus urticae); assay: Tetranychus test (OP-resistant/dip treatment); details: 100 ppm active compound, OP-resistant, infested bean plants (Phaseolus vulgaris) dipped
Method: Tetranychus Test (OP-Resistant/dip Treatment)
• Solvent: 7 parts by weight of dimethylformamide • Emulsifier: 2 parts by weight of alkylaryl polyglycol ether
To produce a suitable preparation of active compound, 1 part by weight of active compound is mixed with the stated amounts of solvent and emulsifier, and the concentrate is diluted with emulsifier-containing water to the desired concentration.
Bean plants (Phaseolus vulgaris) which are heavily infested by all stages of the greenhouse red spider mite (Tetranychus urticae) are dipped into a preparation of active compound of the desired concentration.
After the desired period of time, the effect in % is determined. 100% means that all spider mites have been killed; 0% means that none of the spider mites has been killed.

SMILES: Cc1ccc(-c2ccc(Cl)cc2)cc1C1=C(OC(=O)OCC(C)C)C(C)(C)ON(C)C1=O [Example I-c-1]
- Kill rate in % after 7^d [1]: 100%
- Kill rate in % after 7^d [2]: 100%
- Kill rate in % after 7^d [3]: 98%
